Source: patent US12139487B2, “Compounds and uses thereof” (Foghorn Therapeutics Inc., priority 2022, dated 2024)
pIC50: −log10 of the molar value.

Tests used:
[1] = target: T1, BRG-1 (Homo sapiens, UniProt P51532); test: ATPase catalytic activity assay (ADP-Glo), BRG-1; format: biochemical; details: Table 10, read-out: BRG1 IC50
T1 construct: made in house; host or cells: High Five insect cells
Procedure: The ATPase catalytic activity of BRM or BRG-1 was measured by an in vitro biochemical assay using ADP-Glo™ (Promega, V9102). The ADP-Glo™ kinase assay is performed in two steps once the reaction is complete. The first step is to deplete any unconsumed ATP in the reaction. The second step is to convert the reaction product ADP to ATP, which will be utilized by the luciferase to generate luminesce and be detected by a luminescence reader, such as Envision.
Then, following addition of 5 μL of ADP-Glo™ Reagent provided in the kit, the reaction incubates at room temperature for 40 minutes. Then, 10 μL of Kinase Detection Reagent provided in the kit is added to convert ADP to ATP, and the reaction incubates at room temperature for 60 minutes. Finally, luminescence measurement is collected with a plate-reading luminometer, such as Envision.

[2] = tested on: BRM-dependent transcription (BRG1 mutant lung cancer cell line A549); test: BRM-dependent transcription, MMTV luciferase reporter in BRG1 mutant A549 cells; format: cell-based; details: Table 11; for pIC50: A549-MMTV luciferase reporter, dexamethasone induced, 6 hours; for Ratio (MDA-MMTV IC50 (μM) divided by A549-MMTV IC50 (μM)): MMTV luciferase reporter cell lines, selectivity BRG1/BRM
Summary of the method: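 Compound dose series added to dexamethasone-stimulated A549 cells (BRG1 mutant) carrying a BRM-dependent mouse mammary tumor virus luciferase reporter; luminescence measured at 6 h post-stimulation.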

T1 sequence (P51532 whole entry): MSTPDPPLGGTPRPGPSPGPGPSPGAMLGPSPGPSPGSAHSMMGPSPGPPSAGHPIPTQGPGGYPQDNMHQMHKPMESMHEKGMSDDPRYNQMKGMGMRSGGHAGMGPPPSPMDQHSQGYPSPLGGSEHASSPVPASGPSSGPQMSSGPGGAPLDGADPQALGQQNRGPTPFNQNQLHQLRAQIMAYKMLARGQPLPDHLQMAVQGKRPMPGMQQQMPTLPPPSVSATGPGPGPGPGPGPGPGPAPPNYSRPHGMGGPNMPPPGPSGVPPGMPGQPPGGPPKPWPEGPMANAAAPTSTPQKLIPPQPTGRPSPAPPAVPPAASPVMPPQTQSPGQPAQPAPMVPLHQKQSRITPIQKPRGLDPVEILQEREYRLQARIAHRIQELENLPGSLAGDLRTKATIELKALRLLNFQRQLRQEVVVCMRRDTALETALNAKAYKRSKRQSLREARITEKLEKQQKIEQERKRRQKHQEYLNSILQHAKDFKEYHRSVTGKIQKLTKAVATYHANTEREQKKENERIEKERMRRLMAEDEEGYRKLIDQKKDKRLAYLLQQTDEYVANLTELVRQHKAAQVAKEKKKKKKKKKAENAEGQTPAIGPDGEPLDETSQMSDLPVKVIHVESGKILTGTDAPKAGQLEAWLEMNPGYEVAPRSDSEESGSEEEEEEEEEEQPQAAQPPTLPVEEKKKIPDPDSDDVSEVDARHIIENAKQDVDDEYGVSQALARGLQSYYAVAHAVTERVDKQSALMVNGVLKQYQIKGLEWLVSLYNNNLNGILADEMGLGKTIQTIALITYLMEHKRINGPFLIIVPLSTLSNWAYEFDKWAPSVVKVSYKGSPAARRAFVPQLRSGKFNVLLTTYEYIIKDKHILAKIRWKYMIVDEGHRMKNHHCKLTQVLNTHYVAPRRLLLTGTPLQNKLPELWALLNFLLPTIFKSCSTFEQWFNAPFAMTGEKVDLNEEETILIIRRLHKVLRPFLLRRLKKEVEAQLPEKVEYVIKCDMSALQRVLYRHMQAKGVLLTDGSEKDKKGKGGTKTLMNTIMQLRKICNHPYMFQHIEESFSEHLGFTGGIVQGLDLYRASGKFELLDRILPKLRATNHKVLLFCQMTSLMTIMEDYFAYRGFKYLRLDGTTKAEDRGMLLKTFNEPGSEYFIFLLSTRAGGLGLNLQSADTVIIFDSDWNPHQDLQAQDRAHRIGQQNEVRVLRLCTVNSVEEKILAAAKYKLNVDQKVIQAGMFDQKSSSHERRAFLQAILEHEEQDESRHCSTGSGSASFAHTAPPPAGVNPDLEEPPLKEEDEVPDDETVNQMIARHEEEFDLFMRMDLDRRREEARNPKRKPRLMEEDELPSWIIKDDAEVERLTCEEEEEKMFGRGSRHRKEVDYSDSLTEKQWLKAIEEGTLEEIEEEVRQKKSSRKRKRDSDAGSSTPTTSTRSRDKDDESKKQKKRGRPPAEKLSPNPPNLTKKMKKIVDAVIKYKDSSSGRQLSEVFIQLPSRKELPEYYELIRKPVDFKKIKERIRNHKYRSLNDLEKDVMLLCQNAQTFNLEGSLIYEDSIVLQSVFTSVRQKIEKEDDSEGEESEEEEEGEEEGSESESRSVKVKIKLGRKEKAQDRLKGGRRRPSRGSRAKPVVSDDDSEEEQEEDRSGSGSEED

Work on `Cc1cnc2c(c1)OCCN2c1ccc2cnc(CNC(=O)c3cc(F)c4c(c3)S(=O)(=O)[C@@H](F)COC4)cc2n1` [Compound 6, (R)-2,6-difluoro-N-((2-(7-methyl-2,3-dihydro-4H-pyrido[3,2-b][1,4]oxazin-4-yl)-1,6-naphthyridin-7-yl)methyl)-2,3-dihydro-5H-benzo[e][1,4]oxathiepine-8-carboxamide 1,1-dioxide] yielded a pIC50 [1] of 7.67.
`O=C(NCc1cc2nc(N3CCOc4cc(N5CC(F)C5)cnc43)ccc2cn1)c1ccc2c(c1)S(=O)(=O)[C@@H](F)CCOC2` [Compound 7] was tested, and the pIC50 [1] was 7.75.
Compound `C[C@@H]1OC[C@H](F)S(=O)(=O)c2cc(C(=O)NCc3cc4nc(N5CCOc6cc(C7CC7)cnc65)ccc4cn3)ccc21` [Compound 49] has a pIC50 [1] of 7.36.
`CCO[C@@H]1CCN(c2cccc(-c3ccc4cnc(CNC(=O)c5cc(F)c6c(c5)S(=O)(=O)[C@@H](F)CCO6)cc4n3)n2)C1` [Compound 92] was tested, and the pIC50 [1] was 7.41.
Compound `COCCOc1ccc2c(c1)OCCN2c1ccc2cnc(CNC(=O)c3cc(F)c4c(c3)S(=O)(=O)[C@@H](F)CCO4)cc2n1` [Compound 93] has a pIC50 [1] of 7.37.
In the case of `CCOc1ccnc2c1OCCN2c1ccc2cnc(CNC(=O)c3cc(Cl)c4c(c3)S(=O)(=O)[C@@H](F)CCO4)cc2n1` [Compound 94], the pIC50 [1] was 7.23.
In the case of `CN(C)c1cnc2c(c1)OCCN2c1ccc2cnc(CNC(=O)c3cc(F)c4c(c3)S(=O)(=O)[C@@H](F)CCO4)cc2n1` [Compound 106], the pIC50 [1] was 7.45.
Compound `C[C@@H]1CN(c2cccc(/C=C/c3ccnc(CNC(=O)c4cc(Cl)c5c(c4)S(=O)(=O)[C@@H](F)COC5)c3)n2)C[C@H](C)O1` [Compound 107] has a pIC50 [1] of 7.00.
Work on `O=C(NCc1cc2nc(N3CCOc4ccc(OC(F)F)nc43)ccc2cn1)c1cc(F)c2c(c1)S(=O)(=O)[C@@H](F)CCO2` [Compound 126] yielded a pIC50 [1] of 7.05.
With `COc1nc(C(F)(F)F)ccc1-c1ccc2cnc(CNC(=O)c3cc(F)c4c(c3)S(=O)(=O)[C@@H](F)COC4)cc2n1` [Compound 127] the pIC50 [1] was 7.14.
With `O=C(NCc1cc2nc(-c3cccc([C@H]4CC4(F)F)n3)ccc2cn1)c1cc(F)c2c(c1)S(=O)(=O)[C@@H](F)COC2` [Compound 128] the pIC50 [1] was 6.91.
`O=C(NCc1cc2nc(N3CCOc4ccc(C(F)F)nc43)ccc2cn1)c1cc(Cl)c2c(c1)S(=O)(=O)[C@@H](F)COC2` [Compound 208] showed a pIC50 [1] of 6.62.
With `O=C(NCc1cc2nc(N3CCOc4ccc([C@@H]5C[C@@H]5F)nc43)ccc2cn1)c1cc(F)c2c(c1)S(=O)(=O)[C@@H](F)COC2` [Compound 209] the pIC50 [1] was 6.99.
With `CO[C@H]1C[C@@H]1N(C)c1cccc(-c2ccc3cnc(CNC(=O)c4cc(F)c5c(c4)S(=O)(=O)[C@@H](F)COC5)cc3n2)n1` [Compound 211] the pIC50 [1] was 7.21.
`O=C(NCc1cc2nc(N3CCOc4c(N5CC6(CC6)C5)ccnc43)ccc2cn1)c1cc(F)c2c(c1)S(=O)(=O)[C@@H](F)COC2` [Compound 212] showed a pIC50 [1] of 6.87.
Work on `O=C(NCc1cc2nc(N3CCOc4cc(OCC(F)F)cnc43)ccc2cn1)c1cc(F)c2c(c1)S(=O)(=O)[C@@H](F)COC2` [Compound 213] yielded a pIC50 [1] of 7.04.
`C[C@@H]1CCN1c1cc2c(cn1)N(c1ccc3cnc(CNC(=O)c4cc(F)c5c(c4)S(=O)(=O)[C@@H](F)COC5)cc3n1)CCO2` [Compound 214] was tested, and the pIC50 [1] was 7.14.
For `C[C@@H]1C[C@H](C)N1c1cnc2c(c1)OCCN2c1ccc2cnc(CNC(=O)c3cc(F)c4c(c3)S(=O)(=O)[C@@H](F)CCO4)cc2n1` [Compound 218], the pIC50 [1] was 7.04.
Compound `COCC1CN(c2ccc3c(c2)N(c2ccc4cnc(CNC(=O)c5cc(F)c6c(c5)S(=O)(=O)[C@@H](F)CCO6)cc4n2)CCO3)C1` [Compound 219] has a pIC50 [1] of 6.78.
For `O=C(NCc1cc2nc(-c3cncc(N4CCCC4)n3)ccc2cn1)c1cc(F)c2c(c1)S(=O)(=O)[C@@H](F)CCO2` [Compound 220], the pIC50 [1] was 6.83.
In the case of `O=C(NCc1cc2cc(-c3cccc(C(F)F)n3)ccc2cn1)c1cc(F)c2c(c1)S(=O)(=O)[C@@H](F)COC2` [Compound 232], the pIC50 [1] was 6.85.
`C[C@H]1CCN1c1cnc2c(c1)OCCN2c1ccc2cnc(CNC(=O)c3cc(F)c4c(c3)S(=O)(=O)[C@@H](F)CCO4)cc2n1` [Compound 233] showed a pIC50 [1] of 7.12.
With `COc1nc(C(F)F)ccc1-c1ccc2cnc(CNC(=O)c3cc(C(F)F)c4c(c3)S(=O)(=O)[C@@H](F)COC4)cc2n1` [Compound 234] the pIC50 [1] was 7.08.
Work on `O=C(NCc1cc2nc(N3CCOc4cc(C5CC5)cnc43)ccc2cn1)c1cc(F)c2c(c1)S(=O)(=O)[C@@H](F)CCO2` [Compound 241] yielded a pIC50 [1] of 7.08.
Work on `COc1nc([C@@H](C)F)ccc1-c1ccc2cnc(CNC(=O)c3cc(Cl)c4c(c3)S(=O)(=O)[C@@H](F)COC4)cc2n1` [Compound 242] yielded a pIC50 [1] of 6.61.
`C[C@@H]1CCCN1c1cnc2c(c1)OCCN2c1ccc2cnc(CNC(=O)c3cc(F)c4c(c3)S(=O)(=O)[C@@H](F)CCO4)cc2n1` [Compound 243] showed a pIC50 [1] of 6.96.
`[2H]C([2H])([2H])Oc1ccc(-c2ccc3cnc(CNC(=O)c4cc(F)c5c(c4)S(=O)(=O)[C@@H](F)CCO5)cc3n2)nc1C1CC1` [Compound 257] gave a pIC50 [1] of 6.97.
`O=C(NCc1cc2nc(N3CCOc4cc(N5C[C@@H](F)[C@H](F)C5)cnc43)ccc2cn1)c1cc(Cl)c2c(c1)S(=O)(=O)[C@@H](F)CCO2` [Compound 258, (R)-9-chloro-N-((2-(7-((3R,4R)-3,4-difluoropyrrolidin-1-yl)-2,3-dihydro-4H-pyrido[3,2-b][1,4]oxazin-4-yl)-1,6-naphthyridin-7-yl)methyl)-4-fluoro-3,4-dihydro-2H-benzo[b][1,4]oxathiepine-7-carboxamide 5,5-dioxide] gave a pIC50 [1] of 6.99.
`O=C(NCc1cc2nc(N3CCOc4ccc(N5CCC5)nc43)ccc2cn1)c1cc(F)c2c(c1)S(=O)(=O)[C@@H](F)CCO2` [Compound 264] was tested, and the pIC50 [1] was 6.75.
`O=C(NCc1cc2cc(-c3cccc(C4CC4)n3)ccc2cn1)c1cc(F)c2c(c1)S(=O)(=O)[C@@H](F)CCO2` [Compound 291] showed a pIC50 [1] of 6.69.
`C#Cc1cc(C(=O)NCc2cc3nc(-c4cccc(N5C[C@@H](C)O[C@@H](C)C5)n4)ccc3cn2)cc2c1OCC[C@H](F)S2(=O)=O` [Compound 314] was tested, and the pIC50 [1] was 5.38.
With `COCCOc1nn(-c2ccc3cnc(CNC(=O)c4cc(F)c5c(c4)S(=O)(=O)[C@@H](F)COC5)cc3n2)cc1F` [Compound 508] the pIC50 ([2]; Homo sapiens, A549, 6 h) was 7.94 and the “Ratio (MDA-MMTV IC50 (μM) divided by A549-MMTV IC50 (μM))” value [2] was 21.72.
`CCOc1nc(C(C)(F)F)ccc1-c1ccc2cnc(CNC(=O)c3cc(F)c4c(c3)S(=O)(=O)[C@@H](F)COC4)cc2n1` [Compound 509] was tested, and the pIC50 [2] was 7.69 and the “Ratio (MDA-MMTV IC50 (μM) divided by A549-MMTV IC50 (μM))” value [2] was 25.33.
With `CCOc1nc(C(F)F)ncc1-c1ccc2cnc(CNC(=O)c3cc(C(F)F)c4c(c3)S(=O)(=O)[C@@H](F)COC4)cc2n1` [Compound 510] the pIC50 ([2]; Homo sapiens, A549, 6 h) was 7.84 and the “Ratio (MDA-MMTV IC50 (μM) divided by A549-MMTV IC50 (μM))” value [2] was 22.06.
For `COCCOc1nn(-c2ccc3cnc(CNC(=O)c4cc(Cl)c5c(c4)S(=O)(=O)[C@@H](F)COC5)cc3n2)cc1F` [Compound 512], the pIC50 ([2]; Homo sapiens, A549, 6 h) was 8.00 and the “Ratio (MDA-MMTV IC50 (μM) divided by A549-MMTV IC50 (μM))” value [2] was 23.26.
In the case of `COCCOc1cnc2c(-c3ccc4cnc(CNC(=O)c5cc(Cl)c6c(c5)S(=O)(=O)[C@@H](F)COC6)cc4n3)cccc2c1` [Compound 513], the pIC50 ([2]; Homo sapiens, A549, 6 h) was 7.86 and the “Ratio (MDA-MMTV IC50 (μM) divided by A549-MMTV IC50 (μM))” value [2] was 27.47.
In the case of `O=C(NCc1cc2nc(-n3cc(F)c(OC(F)F)n3)ccc2cn1)c1cc(C(F)F)c2c(c1)S(=O)(=O)[C@@H](F)COC2` [Compound 514, (2R)—N-[[2-[3-(difluoromethoxy)-4-fluoro-pyrazol-1-yl]-1,6-naphthyridin-7-yl]methyl]-6-(difluoromethyl)-2-fluoro-1,1-dioxo-3,5-dihydro-2H-4,1benzoxathiepine-8-carboxamide], the pIC50 ([2]; Homo sapiens, A549, 6 h) was 7.68 and the “Ratio (MDA-MMTV IC50 (μM) divided by A549-MMTV IC50 (μM))” value [2] was 32.01.
With `CCOc1nc([C@@H](F)CF)ccc1-c1ccc2cnc(CNC(=O)c3cc(C(F)F)c4c(c3)S(=O)(=O)[C@@H](F)COC4)cc2n1` [Compound 515] the pIC50 [2] was 7.78 and the “Ratio (MDA-MMTV IC50 (μM) divided by A549-MMTV IC50 (μM))” value [2] was 23.82.
For `CCOc1nc([C@@H](F)CF)ccc1-c1ccc2cnc(CNC(=O)c3cc(Cl)c4c(c3)S(=O)(=O)[C@@H](F)COC4)cc2n1` [Compound 516], the pIC50 [2] was 7.92 and the “Ratio (MDA-MMTV IC50 (μM) divided by A549-MMTV IC50 (μM))” value [2] was 31.51.
With `CCOc1nc([C@@H](F)CF)ccc1-c1ccc2cnc(CNC(=O)c3cc(Br)c4c(c3)S(=O)(=O)[C@@H](F)COC4)cc2n1` [Compound 517] the pIC50 [2] was 7.69 and the “Ratio (MDA-MMTV IC50 (μM) divided by A549-MMTV IC50 (μM))” value [2] was 35.51.
`CCOc1nc([C@H](F)CF)ccc1-c1ccc2cnc(CNC(=O)c3cc(C(F)F)c4c(c3)S(=O)(=O)[C@@H](F)COC4)cc2n1` [Compound 518] was tested, and the pIC50 [2] was 7.68 and the “Ratio (MDA-MMTV IC50 (μM) divided by A549-MMTV IC50 (μM))” value [2] was 35.47.
`CCOc1nc([C@H](F)CF)ccc1-c1ccc2cnc(CNC(=O)c3cc(Cl)c4c(c3)S(=O)(=O)[C@@H](F)COC4)cc2n1` [Compound 519] was tested, and the pIC50 [2] was 7.65 and the “Ratio (MDA-MMTV IC50 (μM) divided by A549-MMTV IC50 (μM))” value [2] was 28.12.
With `[2H]C([2H])([2H])Oc1ccc(-c2ccc3cnc(CNC(=O)c4cc(Br)c5c(c4)S(=O)(=O)[C@@H](F)COC5)cc3n2)nc1C1CC1` [Compound 522] the pIC50 ([2]; Homo sapiens, A549, 6 h) was 7.67 and the “Ratio (MDA-MMTV IC50 (μM) divided by A549-MMTV IC50 (μM))” value [2] was 29.68.
For `[2H]C([2H])([2H])Oc1ccc(-c2ccc3cnc(CNC(=O)c4cc(Cl)c5c(c4)S(=O)(=O)[C@@H](F)COC5)cc3n2)nc1C1CC1` [Compound 523], the pIC50 ([2]; Homo sapiens, A549, 6 h) was 7.79 and the “Ratio (MDA-MMTV IC50 (μM) divided by A549-MMTV IC50 (μM))” value [2] was 26.20.
